Assay results published in US20090137411A1, “Methods and biochips for detecting small molecule compounds” (priority 2004, published 2009).

Legend:
[1] = test system: anti-drug mouse monoclonal antibodies; assay: Biochip competitive immunoassay for prohibited substances in urine; assay type: binding; conditions: competitive immunoassay on chip
anti-morphine antibodies = assay: Qualitative screening of athlete urines on chip (morphine); assay type: binding, mouse; conditions: athlete urine samples containing the substance

Compound | Cutoff value (the 50% inhibitory concentration) [1] [µg/L] | Cross-reactivity with the anti-morphine antibodies (anti-morphine antibodies)
CC(N)Cc1ccccc1 (stereo not shown) [Amphetamine, amphetamine] | 5.2 | –
C[C@H]1O[C@@H](O[C@H]2[C@@H](O)C[C@H](O[C@H]3[C@@H](O)C[C@H](O[C@H]4CC[C@@]5(C)[C@H](CC[C@@H]6[C@@H]5C[C@@H](O)[C@]5(C)[C@@H](C7=CC(=O)OC7)CC[C@]65O)C4)O[C@@H]3C)O[C@@H]2C)C[C@H](O)[C@@H]1O [Digoxin, digoxin] | 2.8 | –
CN[C@@H](C)Cc1ccccc1 [Methamphetamine] | 4.0 | –
C[C@]12CC[C@H]3[C@@H](CCC4=CC(=O)CC[C@@]43C)[C@@H]1CC[C@@H]2O [Testosterone] | 0.6 | –
COc1ccc2c3c1O[C@H]1[C@@H](O)CC[C@H]4[C@@H](C2)N(C)CC[C@@]341 [dihydrocodeine] | – | Cross-reactivity with the anti-morphine antibodies
CCOC(=O)C1(c2ccccc2)CCN(C)CC1 [pethidine] | – | Cross-reactivity with the anti-morphine antibodies
gentamicin | 2.5 | –
